These results are taken from patent EP1075186B1, “METHOD OF HSV PROPHYLAXIS” (The Children's Hospital Research Foundation, priority 1998, dated 1999).

Data set [1] deals with human foreskin fibroblast (HFF) cell monolayers. The data set can be described thus: Toxicity effects controls (sham-inoculated compound treated HFF monolayers). As to conditions: for TOXICITY EFFECTS CONTROL: Experiment 4, Table 10. The format is cell-based. From the text:
Sham-incolulated, non-treated HFF cell monolayers were included along with the drug-treated monolayers as "cell monolayer controls". • 1. HSV-1 inoculated, non-compound treated HFF monolayers were included as "positive controls"; and • 2.
In the tables, the symbols have the meaning indicated: + = toxic; - = no toxicity; +/- = mild toxicity; ND = not done; T = toxicity effects interfered with CPE rating; CPE = cytopathic effect.

A further data set concerns VZV. The data set can be described thus: In vitro assay with VZV on HFF cell monolayers. The format is cell-based. To be noted: Example 2, Table 17, 0.1 mg/ml, footnote: this toxicity observation is questionable. As to the method: VZV was grown to a CPE level […] of 3-4 + on HFF cell monolayers. The VZV was scraped from the flask, centrifuged and the cell pellet was resuspended in 10 ml of complete medium. 100 to 200 µl of the VZV cell associated inoculum was inoculated onto confluent HFF cell monolayers by absorption for 60 minutes at 37°C. After absorption of the virus, the inoculum was aspirated from the cell monolayers.
The VZV-infected monolayers were rehydrated with medium containing the appropriate concentrations of compounds to be tested. All monolayers were incubated at 37°C. Development of VZV cytopathology was monitored daily for 7 days by inverted light microscopy. Titers were calculated by multiple regression analysis.

Data set [2] relates to HSV-2 strain 186. The data set can be described thus: Mouse genital HSV-2 model, intravaginal prophylaxis. It is filed as in vivo, Swiss Webster mice. How it is done: Sixty female Swiss Webster mice pretreated with medroxyprogesterone acetate were randomized to four groups of 15 to receive either Saline (control), 2 % Acyclovir, 2 % Compound 96, or 0.5% Compound 96. Animals were anesthetized by intraperitoneal injection of sodium pentabarbital and then administered 15 µl of control or test compound intravaginally in one treatment. They were then immediately challenged by intravaginal instillation with 15 µl of a suspension containing 10^4 plaque forming units HSV-2 strain 186. Vaginal swabs were collected on days 1 and 2 post-inoculation (PI) to assess the effect of treatment on vaginal replication in the genital tract. In addition, all animals were examined daily until day 21 PI for mortality and signs of infection (erythema, hair loss and hind limb paralysis).

The subject of data set [3] is HSV-2 strain 186. Described as above. The format is in vivo, Swiss Webster mice. To be noted: repeat study.
Setting [4] is: Experiment 2, Table 4, 0.001 mg/ml, 24 h PI.
[5] abbreviates: Experiment 2, Table 4, 0.001 mg/ml, 48 h PI.
Where [6] appears, read: Experiment 2, Table 4, 0.01 mg/ml, 24 h PI.
Setting [7] is: Experiment 2, Table 4, 0.01 mg/ml, 48 h PI.
The mark [8] stands for this setting: Experiment 2, Table 4, 0.1 mg/ml, 24 h PI.
Where [9] appears, read: Experiment 2, Table 4, 0.1 mg/ml, 48 h PI.
[10] abbreviates: Experiment 2, Table 4, 1 mg/ml, 24 h PI.
Where [11] appears, read: Experiment 2, Table 4, 1 mg/ml, 48 h PI.
Setting [12] is: Experiment 5, Table 12, 48 Hours Post Incubation, 0.001 mg/ml.
[13] abbreviates: Experiment 5, Table 12, 48 Hours Post Incubation, 0.01 mg/ml.
Setting [14] is: Experiment 5, Table 12, 48 Hours Post Incubation, 1 mg/ml.
The mark [15] stands for this setting: Experiment 5, Table 12, 48 Hours Post Incubation, 2 mg/ml.
Where [16] appears, read: Experiment 5, Table 12, 48 Hours Post Incubation, 5 mg/ml.
Where [17] appears, read: Experiment 3, Table 7, 0.001 mg/ml, 24 hrs post incubation.
[18] abbreviates: Experiment 3, Table 7, 0.001 mg/ml, 48 hrs post incubation.
[19] abbreviates: Experiment 3, Table 7, 0.01 mg/ml, 24 hrs post incubation.
[20] abbreviates: Experiment 3, Table 7, 0.01 mg/ml, 48 hrs post incubation.
Setting [21] is: Experiment 3, Table 7, 0.1 mg/ml, 24 hrs post incubation.
Setting [22] is: Experiment 3, Table 7, 0.1 mg/ml, 48 hrs post incubation.
[23] abbreviates: Experiment 3, Table 7, 0.5 mg/ml, 24 hrs post incubation.
Where [24] appears, read: Experiment 3, Table 7, 0.5 mg/ml, 48 hrs post incubation.
Setting [25] is: Experiment 3, Table 7, 1 mg/ml, 24 hrs post incubation.
The mark [26] stands for this setting: Experiment 3, Table 7, 1 mg/ml, 48 hrs post incubation.
[27] abbreviates: Experiment 3, Table 7, 5 mg/ml, 24 hrs post incubation.
Where [28] appears, read: Experiment 3, Table 7, 5 mg/ml, 48 hrs post incubation.
Where [29] appears, read: Experiment 5, cell rounding, detaching from the monolayer, increased granularity, loss of normal morphology.
Where [30] appears, read: 0.001 mg/ml, 24 hrs post incubation.
Where [31] appears, read: 0.001 mg/ml, 48 hrs post incubation.
Where [32] appears, read: 0.01 mg/ml, 24 hrs post incubation.
[33] abbreviates: 0.01 mg/ml, 48 hrs post incubation.
The mark [34] stands for this setting: 0.1 mg/ml, 24 hrs post incubation.
Setting [35] is: 0.1 mg/ml, 48 hrs post incubation.
[36] abbreviates: 0.5 mg/ml, 24 hrs post incubation.
Where [37] appears, read: 0.5 mg/ml, 48 hrs post incubation.
Where [38] appears, read: 1 mg/ml, 24 hrs post incubation.
Where [39] appears, read: 1 mg/ml, 48 hrs post incubation.
[40] abbreviates: 5 mg/ml, 24 hrs post incubation.
[41] abbreviates: 5 mg/ml, 48 hrs post incubation.

Turning to `CC1=CC(C)=[N+]2CC[N+]3=C(C)C=C(C)[O][Co-3]23([NH2])([NH3+])[O]1` [Compound 23, reference compound], the “TOXICITY EFFECTS CONTROLS” value in data set [1] (setting [4]), in data set [1] (setting [5]), in data set [1] (setting [6]), in data set [1] (setting [7]), in data set [1] (setting [8]) and in data set [1] (setting [9]) was “-” each time. Further, the “TOXICITY EFFECTS CONTROLS” value in data set [1] (setting [10]) is “+/-”; in data set [1] (setting [11]), “+/-”; in data set [1] (setting [12]), “-”; in data set [1] (setting [13]), “-”; in data set [1] (Experiment 5, Table 12, 48 Hours Post Incubation, 0.1 mg/ml) it was “-”; in data set [1] (Experiment 5, Table 12, 48 Hours Post Incubation, 0.5 mg/ml) it was “-”. Besides, the “TOXICITY EFFECTS CONTROLS” value in data set [1] (setting [14]) was “-”; in data set [1] (setting [15]), “+/-”; in data set [1] (setting [16]), “+/-”. Besides, in the data set with VZV, the “VIRUCIDAL EFFICACY 7 Days Post Inoculation Efficacy” value is “T?”.
Regarding `CC1=C(Cl)C(C)=[N+]2CC[N+]3=C(C)C(Cl)=C(C)[O][Co-3]23([n+]2cc[nH]c2)([n+]2cc[nH]c2)[O]1` [Compound 93], the “TOXICITY EFFECTS CONTROLS” value in data set [1] (setting [17]) is “-”; in data set [1] (setting [18]), “-”; in data set [1] (setting [19]), “-”; in data set [1] (setting [20]), “-”; in data set [1] (setting [21]) it was “-”; in data set [1] (setting [22]), “+/-”. For the same molecule, the “TOXICITY EFFECTS CONTROLS” value in data set [1] (setting [23]) was “-”; in data set [1] (setting [24]), “-”; in data set [1] (setting [25]), “-”; in data set [1] (setting [26]), “-”; in data set [1] (setting [27]), “+/-”; in data set [1] (setting [28]) it was “+/-”. Besides, the “TOXICITY EFFECTS CONTROLS” value is listed as “-” in data set [1] (setting [12]), “-” in data set [1] (setting [13]) and “+/-” in data set [1] (setting [14]). Also, the toxicity entry in data set [1] (setting [29]) is “more pronounced in the 0.5 and the 0.1 mg/ml concentrations”. In the data set with VZV, the “VIRUCIDAL EFFICACY 7 Days Post Inoculation Efficacy” value was “T?”.
In the case of `CC1=CC(C)=[N+]2CC[N+]3=C(C)C=C(C)[O][Co-3]23([n+]2cc[nH]c2C)([n+]2cc[nH]c2C)[O]1` [Compound 96], the “TOXICITY EFFECTS CONTROLS” value is “-” in data set [1] (Experiment 1, Table 1, 0.001 mg/ml, 24 h); “-” in data set [1] (Experiment 1, Table 1, 0.001 mg/ml, 48 h); “-” in data set [1] (Experiment 1, Table 1, 0.01 mg/ml, 24 h); “-” in data set [1] (Experiment 1, Table 1, 0.01 mg/ml, 48 h); “-” in data set [1] (Experiment 1, Table 1, 0.1 mg/ml, 24 h); “-” in data set [1] (Experiment 1, Table 1, 0.1 mg/ml, 48 h). Moreover, the “TOXICITY EFFECTS CONTROLS” value is listed as “-” in data set [1] (Experiment 1, Table 1, 1 mg/ml, 24 h); “-” in data set [1] (Experiment 1, Table 1, 1 mg/ml, 48 h); “-” in data set [1] (setting [4]); “-” in data set [1] (setting [5]); “-” in data set [1] (setting [6]); “-” in data set [1] (setting [7]). The “TOXICITY EFFECTS CONTROLS” value in data set [1] (setting [8]), in data set [1] (setting [9]), in data set [1] (setting [10]), in data set [1] (setting [11]), in data set [1] (setting [17]) and in data set [1] (setting [18]) was “-” throughout. The “TOXICITY EFFECTS CONTROLS” value was “-” in data set [1] (setting [19]); “-” in data set [1] (setting [20]); “+/-” in data set [1] (setting [21]); “+/-” in data set [1] (setting [22]); “-” in data set [1] (setting [23]); “-” in data set [1] (setting [24]). Moreover, the “TOXICITY EFFECTS CONTROLS” value in data set [1] (setting [25]) is “-”; in data set [1] (setting [26]), “+/-”; in data set [1] (setting [27]), “+/-”; in data set [1] (setting [28]), “+/-”; in data set [1] (setting [12]), “-”; in data set [1] (setting [13]) it was “-”. Further, the “TOXICITY EFFECTS CONTROLS” value in data set [1] (setting [14]) is recorded as “-”; in data set [1] (setting [15]), “+/-”; in data set [1] (setting [16]), “+/-”. The toxicity result in data set [1] (Experiment 1, 1 mg/ml) is “lack of toxicity”; in data set [1] (setting [29]) it was “more pronounced in the 0.5 and the 0.1 mg/ml concentrations”. For the same molecule, the “TOXICITY EFFECTS CONTROL” value in data set [1] (setting [30]) was “-”; in data set [1] (setting [31]), “-”; in data set [1] (setting [32]), “-”; in data set [1] (setting [33]), “-”; in data set [1] (setting [34]), “+/-”; in data set [1] (setting [35]) it was “+/-”. Also, the “TOXICITY EFFECTS CONTROL” value is on record as “-” in data set [1] (setting [36]); “-” in data set [1] (setting [37]); “+/-” in data set [1] (setting [38]); “+/-” in data set [1] (setting [39]); “+/-” in data set [1] (setting [40]); “+” in data set [1] (setting [41]). In the data set with VZV, the “VIRUCIDAL EFFICACY 7 Days Post Inoculation Efficacy” value was “T?”. Also, the “signs of genital disease” value with HSV-2 strain 186 [2] (2 % and 0.5% groups, 15 mice each) is on record as “none of these animals developed any signs of genital disease”. Besides, the mortality result in the data set on HSV-2 strain 186 [2] (2 % and 0.5% groups, 15 mice each, to day 21 PI) was “all lived”. Further, the vaginal herpes infection result in the data set with HSV-2 strain 186 [2] (topical (intravaginal) application before HSV-2 challenge) is “completely blocked”. The “virus in the genital tract” value in the data set with HSV-2 strain 186 [2] (vaginal swabs on day 1 or 2 PI) is on record as “no detectable virus”. Further, in the data set with HSV-2 strain 186 [3] (concentrations of 0.1 % or more), the “protection from visible infection and death” value is “completely protected”. Further, the “animals protected from death” value with HSV-2 strain 186 [3] (lowest concentration of 0.01 %) was 6 of 10.
In the case of `CC1=CC(C)=[N+]2CC[N+]3=C(C)C=C(C)[O][Co-3]23([n+]2c[nH]c(C)c2)([n+]2c[nH]c(C)c2)[O]1` [Compound 97], the “TOXICITY EFFECTS CONTROL” value is listed as “-” in data set [1] (setting [30]); “-” in data set [1] (setting [31]); “-” in data set [1] (setting [32]); “-” in data set [1] (setting [33]); “+/-” in data set [1] (setting [34]); “+/-” in data set [1] (setting [35]). Further, the “TOXICITY EFFECTS CONTROL” value in data set [1] (setting [36]) is recorded as “-”; in data set [1] (setting [37]) it was “-”; in data set [1] (setting [38]), “+/-”; in data set [1] (setting [39]) it was “+/-”; in data set [1] (setting [40]), “+/-”; in data set [1] (setting [41]), “+”.
`CC1=[N+]2CC[N+]3=C(C)C=C(c4ccccc4)[O][Co-3]23([n+]2cc[nH]c2C)([n+]2cc[nH]c2C)[O]C(c2ccccc2)=C1` [Compound 102]: the “TOXICITY EFFECTS CONTROL” value in data set [1] (setting [30]), in data set [1] (setting [31]), in data set [1] (setting [32]), in data set [1] (setting [33]), in data set [1] (setting [34]) and in data set [1] (setting [35]) was “-” throughout. For the same molecule, the “TOXICITY EFFECTS CONTROL” value in data set [1] (setting [36]) is listed as “-”; in data set [1] (setting [37]), “-”; in data set [1] (setting [38]) it was “+/-”; in data set [1] (setting [39]) it was “+/-”; in data set [1] (setting [40]) it was “+/-”; in data set [1] (setting [41]), “+”.
